Experiment: xn = mol fraction of the nth substance listed

ClC(Cl)(Cl)Cl + COC(=O)OC
viscosity [mPa·s], 101.33 kPa
Details | x2 = 0.0994 | x2 = 0.201 | x2 = 0.3063 | x2 = 0.4005 | x2 = 0.5036 | x2 = 0.5982 | x2 = 0.7031 | x2 = 0.833 | x2 = 0.8997
298.15 K | 0.77 | 0.724 | 0.689 | 0.656 | 0.631 | 0.608 | 0.585 | 0.557 | 0.543
303.15 K | 0.719 | 0.68 | 0.646 | 0.614 | 0.588 | 0.572 | 0.548 | 0.52 | 0.511
308.15 K | 0.676 | 0.633 | 0.604 | 0.575 | 0.551 | 0.536 | 0.516 | 0.493 | 0.481

ClC(Cl)(Cl)Cl + COC(C)=O
303.15 K, 101.3 kPa
Details | viscosity [mPa·s]
x2 = 0.1004 | 0.763
x2 = 0.1926 | 0.7035
x2 = 0.2864 | 0.6472
x2 = 0.4018 | 0.587
x2 = 0.5025 | 0.5405
x2 = 0.6004 | 0.5006
x2 = 0.7001 | 0.4608
x2 = 0.8964 | 0.3807

ClC(Cl)(Cl)Cl + COCCO
viscosity [mPa·s], 100 kPa
Details | x1 = 0.0831 | x1 = 0.1694 | x1 = 0.2591 | x1 = 0.3523 | x1 = 0.4494 | x1 = 0.5504 | x1 = 0.6557 | x1 = 0.7655 | x1 = 0.8802
298.15 K | 1.569 | 1.49 | 1.412 | 1.335 | 1.26 | 1.186 | 1.114 | 1.043 | 0.9736
303.15 K | 1.392 | 1.328 | 1.265 | 1.202 | 1.171 | 1.079 | 1.019 | 0.9601 | 0.902
308.15 K | 1.24 | 1.188 | 1.137 | 1.111 | 1.036 | 0.9853 | 0.9601 | 0.8863 | 0.8376
313.15 K | 1.108 | 1.067 | 1.025 | 0.9841 | 0.9429 | 0.9015 | 0.8608 | 0.8201 | 0.7796

CCCOC(C)=O + COCCOCCOCCOCCOC
viscosity [mPa·s], 101 kPa
Details | 298.15 K | 308.15 K | 318.15 K
x1 = 0.01 | 3.323 | 2.605 | 2.085
x2 = 0.0066 | 0.564 | 0.496 | 0.445
x2 = 0.0294 | 0.602 | 0.529 | 0.471
x2 = 0.0477 | 0.633 | 0.554 | 0.494
x2 = 0.0676 | 0.67 | 0.585 | 0.519
x2 = 0.103 | 0.746 | 0.64 | 0.562
x2 = 0.1448 | 0.825 | 0.716 | 0.619
x2 = 0.1941 | 0.93 | 0.794 | 0.689
x2 = 0.2422 | 1.049 | 0.881 | 0.757
x2 = 0.2932 | 1.161 | 0.978 | 0.834
x2 = 0.3625 | 1.343 | 1.12 | 0.943
x2 = 0.4204 | 1.504 | 1.234 | 1.038
x2 = 0.4781 | 1.663 | 1.364 | 1.139
x2 = 0.5293 | 1.827 | 1.472 | 1.22
x2 = 0.5986 | 2.014 | 1.633 | 1.345
x2 = 0.6621 | 2.209 | 1.784 | 1.458
x2 = 0.7157 | 2.378 | 1.924 | 1.559
x2 = 0.7802 | 2.61 | 2.074 | 1.679
x2 = 0.8069 | 2.687 | 2.142 | 1.737
x2 = 0.8324 | 2.77 | 2.203 | 1.78

ClC(Cl)(Cl)Cl + COc1ccccc1
viscosity [mPa·s], 101 kPa
Details | x2 = 0.105 | x2 = 0.2013 | x2 = 0.3026 | x2 = 0.3956 | x2 = 0.5023 | x2 = 0.5968 | x2 = 0.699 | x2 = 0.797 | x2 = 0.8998
298.15 K | 0.9408 | 0.9425 | 0.9493 | 0.9547 | 0.9644 | 0.9745 | 0.9834 | 0.9896 | 0.9961
303.15 K | 0.8895 | 0.8842 | 0.8852 | 0.8927 | 0.9013 | 0.9054 | 0.9147 | 0.919 | 0.926
308.15 K | 0.8268 | 0.8263 | 0.8279 | 0.8326 | 0.8397 | 0.8446 | 0.8502 | 0.8547 | 0.858
313.15 K | 0.7762 | 0.7751 | 0.7851 | 0.7777 | 0.7837 | 0.7864 | 0.7919 | 0.7946 | 0.7981

CCOC(=O)c1ccccc1O + CS(C)=O
303.15 K, 101 kPa
Details | viscosity [mPa·s]
x1 = 0.0499 | 1.888
x1 = 0.1687 | 2.196
x1 = 0.2404 | 2.294
x1 = 0.3226 | 2.533
x1 = 0.4179 | 2.57
x1 = 0.5265 | 2.723
x1 = 0.6564 | 2.843

ClC(Cl)(Cl)Cl + CS(C)=O
Details | viscosity [mPa·s]
298 K, 101.3 kPa, x1 = 0.1093 | 2.001
298 K, 101.3 kPa, x1 = 0.226 | 1.852
298 K, 101.3 kPa, x1 = 0.4246 | 1.654
298 K, 101.3 kPa, x1 = 0.5746 | 1.5
298 K, 101.3 kPa, x1 = 0.6402 | 1.399
298 K, 101.3 kPa, x1 = 0.8661 | 1.067
303.15 K, 101.33 kPa, x1 = 0.2642 | 1.553
303.15 K, 101.33 kPa, x1 = 0.3011 | 1.526
303.15 K, 101.33 kPa, x1 = 0.3924 | 1.483
303.15 K, 101.33 kPa, x1 = 0.4763 | 1.391
303.15 K, 101.33 kPa, x1 = 0.5118 | 1.358
303.15 K, 101.33 kPa, x1 = 0.5664 | 1.304
318 K, 101.3 kPa, x1 = 0.114 | 1.312
318 K, 101.3 kPa, x1 = 0.2398 | 1.25
318 K, 101.3 kPa, x1 = 0.424 | 1.139
318 K, 101.3 kPa, x1 = 0.5763 | 1.035
318 K, 101.3 kPa, x1 = 0.8096 | 0.8725

— the CheMixHub viscosity set
